Read-outs that look alike come from different tables or passages of the source.
Columns and labels:
[1] = tested on: FXR target gene expression in the liver; test: liver gene expression by QPCR after 14 days oral FEX-D or SALK110; format: in vivo, Mice; conditions: 50 mg/kg PO 14 days
Method: Mice were treated daily with vehicle, FEX-D, or SALK110 (NSSK00110, 50 mg kg^−1) (see FIG. 29A) by oral (PO) gavage for 14 days, with tissues collected 1 hour after the final treatment. Gene expression changes in the liver were measured by QPCR.

ob/ob mice = test: fexaramine and deuterated analogs in ob/ob mice, 2 weeks; format: in vivo; conditions: 2 weeks at 50 mg/kg PO
Method: An in vivo study of fexaramine and selectively-deuterated fexaramine compounds (FIG. 29A) was performed. Briefly, ob/ob mice were treated daily with vehicle, Fex, or deuterated analogs (50 mg kg^−1) by oral (PO) gavage for 2 weeks. Subsequently, body weight, body temperature, fasting blood glucose and insulin levels, insulin secretion, and GLP1 section were measured, and glucose tolerance tests (GTTs) performed.

Human FXR full length = target: T1, Human FXR full length (Homo sapiens, UniProt Q96RI1); test: FXR activity screen, luciferase reporter in transfected CV-1 cells; format: cell-based
T1 construct: Human FXR full length and RXR full length was obtained from Ronald Evans' laboratory; expressed in transfected cells; host or cells: CV-1 cells
T1 sequence (Q96RI1 1-476 isoform Q96RI1-1): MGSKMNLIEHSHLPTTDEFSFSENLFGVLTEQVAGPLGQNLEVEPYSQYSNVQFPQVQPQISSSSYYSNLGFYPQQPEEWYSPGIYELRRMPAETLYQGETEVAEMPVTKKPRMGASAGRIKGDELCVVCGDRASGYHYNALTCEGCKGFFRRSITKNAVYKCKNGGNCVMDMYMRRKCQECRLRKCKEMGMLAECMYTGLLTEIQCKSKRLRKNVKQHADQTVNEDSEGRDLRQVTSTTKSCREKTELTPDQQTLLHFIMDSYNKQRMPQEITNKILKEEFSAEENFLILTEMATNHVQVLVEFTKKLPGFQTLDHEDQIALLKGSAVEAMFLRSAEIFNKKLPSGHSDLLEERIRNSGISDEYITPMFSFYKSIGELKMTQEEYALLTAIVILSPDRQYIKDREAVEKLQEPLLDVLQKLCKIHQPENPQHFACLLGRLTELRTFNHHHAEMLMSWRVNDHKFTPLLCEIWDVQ
T1 sequence (P19793 1-462 partner): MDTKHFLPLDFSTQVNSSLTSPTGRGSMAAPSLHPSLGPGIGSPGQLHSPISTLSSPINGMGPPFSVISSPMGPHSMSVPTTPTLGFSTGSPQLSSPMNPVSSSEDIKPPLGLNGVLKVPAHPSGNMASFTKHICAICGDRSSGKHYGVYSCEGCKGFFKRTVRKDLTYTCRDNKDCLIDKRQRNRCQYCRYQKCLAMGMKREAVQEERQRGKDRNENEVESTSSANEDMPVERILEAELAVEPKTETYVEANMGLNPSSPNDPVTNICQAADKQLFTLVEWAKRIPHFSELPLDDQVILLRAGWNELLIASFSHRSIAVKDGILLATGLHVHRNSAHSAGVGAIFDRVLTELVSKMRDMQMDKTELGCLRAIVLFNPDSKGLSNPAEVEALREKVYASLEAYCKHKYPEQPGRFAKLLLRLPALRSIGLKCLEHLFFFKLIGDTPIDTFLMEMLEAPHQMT
Method: CV-1 cells were grown in DMEM+10% charcoal stripped FCS. Cells were seeded into 384-well plates the day before transfection to give a confluency of 50-80% at transfection. A total of […] DNA containing 0.32 micrograms pCMX-hFXRfl, 0.32 micrograms pCMX-hRXRfl, 0.1 micrograms pCMXβGal, 0.08 micrograms pGLFXRE reporter and 0.02 micrograms pCMX empty vector was transfected per well using FuGene transfection reagent according to the manufacturer's instructions (Roche). Cells were allowed to express protein for 48 hours followed by addition of compound.
Human FXR full length and RXR full length was obtained from Ronald Evans' laboratory and PCR amplification of the hFXR cDNA and the hRXR cDNA was performed. The amplified cDNAs was cloned into the vector pCMX generating the plasmids pCMX-hFXRfl and pCMX-hRXRfl. Ensuing fusions were verified by sequencing. The pCMXMH2004 luciferase reporter contains multiple copies of the GAL4 DNA response element under a minimal eukaryotic promoter (Hollenberg and Evans, 1988). pCMXβGal was generated in the Evans laboratory, Salk Institute.
All compounds were dissolved in DMSO and diluted 1:1000 upon addition to the cells. Compounds were tested in quadruple in concentrations ranging from 0.001 to 100 μM. Cells were treated with compound for 24 hours followed by luciferase assay. Each compound was tested in at least two separate experiments.
Medium including test compound was aspirated and washed with PBS. 50 μL PBS including 1 mM Mg^2+ and Ca^2+ were then added to each well. The luciferase assay was performed using the LucLite kit according to the manufacturer's instructions (Packard Instruments). Light emission was quantified by counting on a Perkin Elmer Envision reader. To measure […] activity 25 μL supernatant from each transfection lysate was transferred to a new 384 microplate. Beta-galactosidase assays were performed in the microwell plates using a kit from Promega and read in a Perkin Elmer Envision reader. The beta-galactosidase data were used to normalize (transfection efficiency, cell growth etc.) the luciferase data.
The activity of a compound is calculated as fold induction compared to an untreated sample. For each compound the efficacy (maximal activity) is given as a relative activity compared to Fexaramine, a FXR agonist. The EC50 is the concentration giving 50% of maximal observed activity. EC50 values were calculated via non-linear regression using GraphPad PRISM (GraphPad Software, San Diego, Calif.).

human L cells = test: oxygen consumption rate of intestinal L cells (Seahorse analyzer); format: cell-based; conditions: fexaramine 1 μM for 24 hours
Method: FIG. 41 is a graph showing the effects of modulating FXR activity on the oxidative metabolism of intestinal L cells. L cells were treated with the FXR agonist fexaramine, the FXR antagonist Guggulsterone, or a combination of both, prior to measurement of their oxygen consumption rate (OCR) in a Seahorse analyzer.
To examine the effects of FXR in the secretion of GLP-1, the metabolic changes induced in human L cells was measured by treatment with the FXR agonist, fexaramine and an FXR antagonist guggulsterone. Treatment of L cells with fexaramine (1 μM for 24 hours) lead to an increase in the oxygen consumption rate (OCR), consistent with increased mitochondrial activity and consequently, an increased energetic state (FIG. 41). The reverse effect was seen after treatment with the FXR antagonist, guggulsterone, with lower OCR after drug treatment.

[2] = first round, CV-1 cells, 24 hours, read-out: 1st RND EC50
[3] = retest, read-out: EC50 (retested)
[4] = second round, CV-1 cells, 24 hours, read-out: 2nd RND EC50

| Compound | EC50 (Human FXR full length; [2]) | EC50 (Human FXR full length; [4]) | other results |
| --- | --- | --- | --- |
| [2H]C(c1ccc(-c2ccc3c(cnn3C)c2)cc1)N(C(=O)C1CCCCC1)c1cc(F)cc(/C=C/C(=O)OC)c1 (stereo not shown) [NSSK00096, methyl (E)-3-(3-fluoro-5-(N-((4-(1-methyl-1H-indazol-5-yl)phenyl)methyl-d)cyclohexanecarboxamido)phenyl)acrylate] | 340 nM | 375 nM | EC50 (Human FXR full length; [3]): 220 nM |
| COC(=O)/C=C/c1cc(F)cc(N(Cc2ccc(-c3ccc4c(cnn4C)c3)cc2Cl)C(=O)C2CCCCC2)c1 [NSSK00097] | 866 nM | 726 nM | – |
| COC(=O)/C=C/c1cccc(N(Cc2ccc(-c3ccc4c(cnn4C)c3)cc2Cl)C(=O)c2ccccc2)c1 [NSSK00098] | 655 nM | 670 nM | – |
| COC(=O)/C=C/c1cc(F)cc(N(Cc2ccc(-c3ccc4c(cnn4C)c3)cc2F)C(=O)c2ccccc2)c1 [NSSK00099] | 2100 nM | 2100 nM | – |
| COC(=O)/C=C/c1cc(F)cc(N(Cc2ccc(-c3ccc4c(cnn4C)c3)cc2Cl)C(=O)c2ccccc2)c1 [NSSK00100] | 1400 nM | 1800 nM | – |
| [2H]C(c1ccc(-c2ccc3c(cnn3C)c2)cc1Cl)N(C(=O)c1ccccc1)c1cncc(/C=C/C(=O)OC)c1 (stereo not shown) [NSSK00101] | 5900 nM | 15100 nM | – |
| COC(=O)/C=C/c1cc(F)cc(N(Cc2ccc(-c3ccc(N(C)C)cc3)cc2Cl)C(=O)c2ccccc2)c1 [NSSK00103] | 308 nM | 1000 nM | – |
| [2H]C(c1ccc(-c2ccc(N(C)C)cc2)cc1F)N(C(=O)c1ccccc1)c1cc(F)cc(/C=C/C(=O)OC)c1 (stereo not shown) [NSSK00108] | – | 497 nM | – |
| [2H]C(c1ccc(-c2ccc(N(C)C)cc2)cc1F)N(C(=O)c1ccccc1)c1cncc(/C=C/C(=O)OC)c1 (stereo not shown) [NSSK00116] | – | 8600 nM | – |
| COC(=O)/C=C/c1cc(F)cc(N(Cc2ccc(-c3ccc(N(C)C)cc3)cc2Cl)C(=O)C2CCCCC2)c1 [NSSK00117] | 983 nM | 1300 nM | – |
| COC(=O)/C=C/c1cncc(N(Cc2ccc(-c3ccc4c(cnn4C)c3)cc2)C(=O)c2ccccc2)c1 [NSSK00118] | 7000 nM | 55000 nM | – |
| [2H]C(c1ccc(-c2ccc3c(cnn3C)c2)cc1)N(C(=O)c1ccccc1)c1cncc(/C=C/C(=O)OC)c1 (stereo not shown) [NSSK00119] | 798 nM | 65000 nM | – |
| C/C=C1\C(=O)C[C@H]2[C@@H]3CCC4=CC(=O)CC[C@]4(C)[C@H]3CC[C@]12C [guggulsterone] | – | – | oxygen consumption rate (OCR) (human L cells): lower OCR |

Continued, in another order:

| EC50 (Human FXR full length; [2]) | EC50 (Human FXR full length; [4]) | Compound | other results |
| --- | --- | --- | --- |
| 177 nM | 150 nM | [2H]C(c1ccc(-c2ccc(N(C)C)cc2)cc1)N(C(=O)C1CCCCC1)c1cccc(/C=C/C(=O)OC)c1 (stereo not shown) [NSSK00077, methyl (E)-3-(3-(N-((4′-(dimethylamino)-[1,1′-biphenyl]-4-yl)methyl-d)cyclohexanecarboxamido)phenyl)acrylate] | expression of FXR target genes SHP and BSEP in the liver [1]: fail to alter; core body temperature (ob/ob mice): more effective at increasing core body temperature than Fex; fasting blood glucose levels (ob/ob mice): significantly reduced; EC50 (Human FXR full length; [3]): 98 nM |
| 252 nM | 328 nM | COC(=O)/C=C/c1cc(F)cc(N(Cc2ccc(-c3ccc(N(C)C)cc3)cc2)C(=O)[C@@H]2C[C@@H]3CC[C@H]2C3)c1 [NSSK00102] | – |
| 227 nM | 547 nM | [2H]C(c1ccc(-c2ccc(N(C)C)cc2)cc1Cl)N(C(=O)[C@@H]1C[C@@H]2CC[C@H]1C2)c1cc(F)cc(/C=C/C(=O)OC)c1 (stereo partly shown) [NSSK00104] | – |
| 450 nM | 861 nM | [2H]C(c1ccc(-c2ccc(N(C)C)cc2)cc1)N(C(=O)[C@@H]1C[C@@H]2CC[C@H]1C2)c1cccc(/C=C/C(=O)OC)c1 (stereo partly shown) [NSSK00107] | – |
| 190 nM | 316 nM | [2H]C(c1ccc(-c2ccc(N(C)C)cc2)cc1F)N(C(=O)C1CCCCC1)c1cc(F)cc(/C=C/C(=O)OC)c1 (stereo not shown) [NSSK00109] | – |
| 60.1 nM | 174 nM | [2H]C(c1ccc(-c2ccc(N(C)C)cc2)cc1F)N(C(=O)[C@@H]1C[C@@H]2CC[C@H]1C2)c1cc(F)cc(/C=C/C(=O)OC)c1 (stereo partly drawn) [NSSK00110, methyl (E)-3-(3-((1S,2R,4R)—N-((4′-(dimethylamino)-3-fluoro-[1,1′-biphenyl]-4-yl)methyl-d)bicyclo[2.2.1]heptane-2-carboxamido)-5-fluorophenyl)acrylate] | EC50 (Human FXR full length; [3]): 46 nM |
| 652 nM | 2700 nM | [2H]C(c1ccc(-c2ccc3c(cnn3C)c2)cc1)N(C(=O)[C@@H]1C[C@@H]2CC[C@H]1C2)c1cc(F)cc(/C=C/C(=O)OC)c1 (stereo partly shown) [NSSK00113] | – |
| 264 nM | 614 nM | [2H]C(c1ccc(-c2ccc(N(C)C)cc2)cc1)N(C(=O)c1ccccc1)c1cc(F)cc(/C=C/C(=O)OC)c1 (stereo not shown) [NSSK00114] | – |
| – | 2000 nM | COC(=O)/C=C/c1cncc(N(Cc2ccc(-c3ccc(N(C)C)cc3)cc2F)C(=O)[C@@H]2C[C@@H]3CC[C@H]2C3)c1 [NSSK00115] | – |

Reference: patent US20190084939A1, “ANALOGS OF FEXARAMINE AND METHODS OF MAKING AND USING” (Salk Institute for Biological Studies, priority 2014, published 2019)
